Consider 19 molecules from PubChem BioAssay AID248 (DTP/NCI, 2004).

“And” between values parts separate entries of the source, which are not always exact repeats. Equal values may be shown once. Inconclusive results and toxic doses are left out.

This assay relates to L1210 leukemia ip in BDF1 mice, survival T/C. Description: NCI In Vivo Anticancer Drug Screen. Data for tumor model L1210 Leukemia (intraperitoneal) in B6D2F1 (BDF1) mice. Particulars: endpoint: mean survival time, higher = longer survival. In outline:
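Survival endpoint. Drug-treated group vs vehicle group, expressed as T divided by C. Tumor passaged by transplantation.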

Setting [1] is: dose: 25.0 mg/kg/injection, schedule: Q01DX009 (ip), vehicle: Klucel (hydroxypropylcellulose) (HPC).
Where [2] appears, read: dose: 50.0 mg/kg/injection, schedule: Q01DX009 (ip), vehicle: Klucel (hydroxypropylcellulose) (HPC).
Where [3] appears, read: dose: 100.0 mg/kg/injection, schedule: Q01DX009 (ip), vehicle: Klucel (hydroxypropylcellulose) (HPC).
Where [4] appears, read: dose: 100.0 mg/kg/injection, schedule: Q01DX009 (ip), vehicle: saline.
Where [5] appears, read: dose: 100.0 mg/kg/injection, schedule: Q04DX003 (ip), vehicle: saline.
Setting [6] is: dose: 200.0 mg/kg/injection, schedule: Q01DX009 (ip), vehicle: saline.
[7] abbreviates: dose: 200.0 mg/kg/injection, schedule: Q04DX003 (ip), vehicle: saline.
The mark [8] stands for this setting: dose: 400.0 mg/kg/injection, schedule: Q01DX009 (ip), vehicle: saline.
Where [9] appears, read: dose: 400.0 mg/kg/injection, schedule: Q04DX003 (ip), vehicle: saline.
[10] abbreviates: dose: 50.0 mg/kg/injection, schedule: Q01DX001 (ip), vehicle: saline.
The mark [11] stands for this setting: dose: 100.0 mg/kg/injection, schedule: Q01DX009 (ip), vehicle: saline with Tween-80.
[12] abbreviates: dose: 200.0 mg/kg/injection, schedule: Q01DX009 (ip), vehicle: saline with Tween-80.
Where [13] appears, read: dose: 100.0 mg/kg/injection, schedule: Q04DX003 (ip), vehicle: Klucel (hydroxypropylcellulose) (HPC).
The mark [14] stands for this setting: dose: 200.0 mg/kg/injection, schedule: Q04DX003 (ip), vehicle: Klucel (hydroxypropylcellulose) (HPC).
[15] abbreviates: dose: 400.0 mg/kg/injection, schedule: Q04DX003 (ip), vehicle: Klucel (hydroxypropylcellulose) (HPC).
[16] abbreviates: dose: 100.0 mg/kg/injection, schedule: Q04DX003 (ip), vehicle: saline with Tween-80.
Where [17] appears, read: dose: 200.0 mg/kg/injection, schedule: Q04DX003 (ip), vehicle: saline with Tween-80.

As to `CC(=O)Nc1ccc(OC(=O)Nc2c(C)cccc2Cl)cc1`, the T/C under setting [1] is 101 % of control; the T/C under setting [2] is 95 % of control; the T/C under setting [3] was 94 % of control and 101 % of control.
As to `OC1COC(O)C(O)C1O` (stereo unspecified), the T/C was 98 % of control under setting [4]; 104 % of control under setting [5]; 103 % of control under setting [6]; 111 % of control under setting [7]; 93 % of control (dose: 250.0 mg/kg/injection, schedule: Q04DX003 (ip), vehicle: saline); 104 % of control under setting [8]. Besides, the T/C under setting [9] was 104 % of control; the T/C (dose: 500.0 mg/kg/injection, schedule: Q04DX003 (ip), vehicle: saline) was 96 % of control; the T/C (dose: 1000.0 mg/kg/injection, schedule: Q04DX003 (ip), vehicle: saline) is 102 % of control; the T/C (dose: 2000.0 mg/kg/injection, schedule: Q04DX003 (ip), vehicle: saline) was 91 % of control.
For the molecule `CC(C)(C)C1CCC(NN)CC1` (stereo unspecified), the T/C reads like this: (dose: 0.78 mg/kg/injection, schedule: Q01DX009 (ip), vehicle: saline) 101 % of control; (dose: 1.56 mg/kg/injection, schedule: Q01DX009 (ip), vehicle: saline) 100 % of control; (dose: 3.12 mg/kg/injection, schedule: Q01DX009 (ip), vehicle: saline) 101 % of control; (dose: 6.25 mg/kg/injection, schedule: Q01DX009 (ip), vehicle: saline) 95 % of control; (dose: 12.5 mg/kg/injection, schedule: Q04DX003 (ip), vehicle: saline) 98 % of control; (dose: 25.0 mg/kg/injection, schedule: Q04DX003 (ip), vehicle: saline) 98 % of control. In addition, under setting [10], the T/C was 92 % of control.
`CCCCCCC1CCCc2ccc(CCCC)cc21` (stereo unspecified): the T/C runs as follows: under setting [10], 110 % of control; (dose: 100.0 mg/kg/injection, schedule: Q01DX001 (ip), vehicle: saline) 106 % of control; (dose: 200.0 mg/kg/injection, schedule: Q01DX001 (ip), vehicle: saline) 101 % of control; (dose: 400.0 mg/kg/injection, schedule: Q01DX001 (ip), vehicle: saline) 101 % of control.
Regarding `C=COCCCCCCCCCCCCCCCCCC`, the T/C by setting is: (dose: 100.0 mg/kg/injection, schedule: Q01DX001 (ip), vehicle: other) 95 % of control; (dose: 200.0 mg/kg/injection, schedule: Q01DX001 (ip), vehicle: other) 95 % of control; (dose: 400.0 mg/kg/injection, schedule: Q01DX001 (ip), vehicle: other) 96 % of control.
Turning to `COc1ccc(/C=C2\N=C(c3cccc(Cl)c3)OC2=O)cc1OC`, the T/C under setting [11] was 105 % of control; the T/C (dose: 100.0 mg/kg/injection, schedule: Q04DX002 (ip), vehicle: Klucel (hydroxypropylcellulose) (HPC)) was 89 % of control; the T/C under setting [12] was 97 % of control; the T/C (dose: 200.0 mg/kg/injection, schedule: Q04DX002 (ip), vehicle: Klucel (hydroxypropylcellulose) (HPC)) was 92 % of control; the T/C (dose: 400.0 mg/kg/injection, schedule: Q01DX009 (ip), vehicle: saline with Tween-80) is 105 % of control; the T/C (dose: 400.0 mg/kg/injection, schedule: Q04DX002 (ip), vehicle: Klucel (hydroxypropylcellulose) (HPC)) was 86 % of control.
As to `CC(CN(C)N=O)C1CCC2C3CC=C4CC(O)CCC4(C)C3CCC12C` (stereo unspecified), the T/C is 96 % of control (dose: 100.0 mg/kg/injection, schedule: Q01DX001 (sc), vehicle: steriod suspending solution); 96 % of control (dose: 200.0 mg/kg/injection, schedule: Q01DX001 (sc), vehicle: steriod suspending solution); 100 % of control (dose: 400.0 mg/kg/injection, schedule: Q01DX001 (sc), vehicle: steriod suspending solution).
In the case of `Cc1nc2ccccc2nc1CBr`, the T/C runs as follows: (dose: 3.2 mg/kg/injection, schedule: Q01DX009 (ip), vehicle: Klucel (hydroxypropylcellulose) (HPC)) 103 % of control; (dose: 6.3 mg/kg/injection, schedule: Q01DX009 (ip), vehicle: Klucel (hydroxypropylcellulose) (HPC)) 100 % of control; (dose: 12.5 mg/kg/injection, schedule: Q01DX009 (ip), vehicle: Klucel (hydroxypropylcellulose) (HPC)) 105 % of control; (dose: 12.5 mg/kg/injection, schedule: Q04DX003 (ip), vehicle: saline with Tween-80) 98 % of control; under setting [1], 97 % of control; (dose: 25.0 mg/kg/injection, schedule: Q04DX003 (ip), vehicle: saline with Tween-80) 89 % of control. Also, the T/C runs as follows: under setting [2], 102 % of control; (dose: 50.0 mg/kg/injection, schedule: Q04DX003 (ip), vehicle: saline with Tween-80) 98 % of control.
On to `CN=C(N)c1ccc(N=C(N)c2ccc(N=C(N)c3ccc(N=C(O)c4cccc(C(O)=Nc5ccc(C(N)=Nc6ccc(C(N)=Nc7ccc(C(N)=NC)cc7)cc6)cc5)c4)cc3)cc2)cc1`, for which the T/C (dose: 13.0 mg/kg/injection, schedule: Q01DX015 (ip), vehicle: water) is 186 % of control.
Regarding `O=C(CS(=O)(=O)Cc1ccccc1)c1ccccc1`, the T/C is 98 % of control under setting [13], 98 % of control under setting [14] and 101 % of control under setting [15].
For `Nc1ncnc(N)c1NC(=O)c1cc(Cl)cc(Cl)c1`, the T/C by setting is: under setting [13], 91 % of control; under setting [15], 86 % of control.
`CCOC(=O)COc1ccc(C=O)cc1`: the T/C by setting is: under setting [3], 110 % of control; under setting [13], 102 % of control; (dose: 200.0 mg/kg/injection, schedule: Q01DX009 (ip), vehicle: Klucel (hydroxypropylcellulose) (HPC)) 96 % of control; under setting [14], 96 % of control; (dose: 400.0 mg/kg/injection, schedule: Q01DX009 (ip), vehicle: Klucel (hydroxypropylcellulose) (HPC)) 98 % of control; under setting [15], 97 % of control.
As for `COc1cccc2ccccc12`, the T/C was 96 % of control under setting [16] and 94 % of control under setting [17].
As to `COC1CC(O[C@H]2CC[C@@]3(C)[C@H](CC[C@@H]4[C@@H]3CC[C@]3(C)[C@@H](C5=CC(=O)OC5)[C@@H](OC(C)=O)C[C@]43O)C2)OC(C)C1O` (stereo partly specified), the T/C was 94 % of control (dose: 5.0 mg/kg/injection, schedule: Q01DX001 (ip), vehicle: saline); 108 % of control (dose: 10.0 mg/kg/injection, schedule: Q01DX001 (ip), vehicle: saline); 100 % of control (dose: 20.0 mg/kg/injection, schedule: Q01DX001 (ip), vehicle: saline); 103 % of control (dose: 40.0 mg/kg/injection, schedule: Q01DX001 (ip), vehicle: saline); 98 % of control (dose: 50.0 mg/kg/injection, schedule: Q01DX001 (ip), vehicle: carboxymethylcellulose (CMC)); 114 % of control (dose: 80.0 mg/kg/injection, schedule: Q01DX001 (ip), vehicle: saline). Further, the T/C (dose: 100.0 mg/kg/injection, schedule: Q01DX001 (ip), vehicle: carboxymethylcellulose (CMC)) was 104 % of control.
Consider `O=C(OCC#CCOC(=O)C(Cl)Cl)C(Cl)Cl`, for which the T/C is 107 % of control under setting [4], 91 % of control under setting [6] and 94 % of control under setting [8].
Turning to `O=C(Nc1ccccc1)Nn1cnc2ccccc2c1=O`, the T/C under setting [16] is 89 % of control; the T/C under setting [17] is 90 % of control; the T/C (dose: 400.0 mg/kg/injection, schedule: Q04DX003 (ip), vehicle: saline with Tween-80) was 88 % of control.
In the case of `CSC(=N)c1cccc(OCCCc2ccccc2)c1`, the T/C reads like this: (dose: 25.0 mg/kg/injection, schedule: Q01DX009 (ip), vehicle: saline with Tween-80) 92 % of control; (dose: 50.0 mg/kg/injection, schedule: Q01DX009 (ip), vehicle: saline with Tween-80) 92 % of control; under setting [11], 101 % of control; under setting [12], 93 % of control.
In the case of `O=C(Nc1ccc(N=Nc2ccccc2)cc1)Nc1cc([N+](=O)[O-])ccc1F`, the T/C runs as follows: under setting [13], 86 % of control; under setting [14], 86 % of control; under setting [15], 91 % of control.
Regarding `OC1(C#CC#CC2(O)CCCCC2)CCCCC1`, the T/C under setting [5] is 92 % of control, the T/C under setting [7] was 98 % of control and the T/C under setting [9] is 93 % of control.
